For the test, the system named is HeLa cells. Kind of test: 2-AG accumulation assay using HeLa cells. It is filed as cell-based. The conditions noted are these: for Emax at 10 µM: Homo sapiens; for Ex. 5 % MAFP @10 μM: 10 μM compound; for Ex. 5 % MAFP @10 μM / Ex. 5 % MAFP @ 1 μM: 2-AG relative to MAFP, HeLa homogenate; for Ex. 5 % MAFP @ 1 μM: 1 μM compound.
The mark [1] stands for this setting: HeLa cell homogenate, 2-AG accumulation relative to MAFP, compound @10 μM (second of two columns with the same head), read-out: Ex. 5 % MAFP @10 μM (second column).
Setting [2] is: HeLa cell homogenate, 2-AG accumulation relative to MAFP, compound @10 μM as printed (first of two columns with the same head), read-out: Ex. 5 % MAFP @10 μM (first column).

Where two headings read alike, the source gives them in different places.

As to `O=C(c1ccc(-c2ccccc2Cl)cc1)N1CC(N2CCN(c3ncccn3)CC2)C1` [compound 8, 2-(4-{1-[(2′-Chlorobiphenyl-4-yl)carbonyl]azetidin-3-yl}piperazin-1-yl)pyrimidine], the Emax at 10 µM under setting [1] amounted to 58.3%. As for `CCCCc1ccc(C(=O)N2CC(N3CCN(c4ccccn4)CC3)C2)cc1` [compound 35, 1-{1-[(4-Butylphenyl)carbonyl]azetidin-3-yl}-4-pyridin-2-ylpiperazine], the Emax at 10 µM under setting [1] was found to be 66.7%. Consider `O=C(c1ccc2nc(C3CCCCC3)oc2c1)N1CC(N2CCN(c3ncccn3)CC2)C1` [compound 10, 2-Cyclohexyl-6-{[3-(4-pyrimidin-2-ylpiperazin-1-yl)azetidin-1-yl]carbonyl}-1,3-benzoxazole], for which the Emax at 10 µM is, setting by setting: under setting [1], 115%; under setting [2], 97.8%. `O=C(c1ccc(Oc2ccccc2)cc1)N1CC(N2CCN(c3ncccn3)CC2)C1` [Compound #20, 2-(4-{1-[(4-Phenoxyphenyl)carbonyl]azetidin-3-yl}piperazin-1-yl)pyrimidine]: the Emax at 10 µM under setting [1] is 71.9%. On to `CCN(CC)c1ccc(C(=O)N2CC(N3CCN(c4ccccn4)CC3)C2)cc1` [compound 37, N,N-Diethyl-4-{[3-(4-pyridin-2-ylpiperazin-1-yl)azetidin-1-yl]carbonyl}aniline], for which the Emax at 10 µM is 65.9% under setting [1] and 32% under setting [2]. For `COc1cccc(-c2nc3cc(C(=O)N4CC(N5CCN(c6ccccn6)CC5)C4)ccc3o2)c1` [Compound #216], the “Ex. 5 % MAFP @10 μM” value is given as 86.9 % MAFP.

As to `CCCn1ccc2cc(C(=O)N3CC(N4CCN(c5ccccn5)CC4)C3)ccc21` [compound 31, 1-Propyl-5-{[3-(4-pyridin-2-ylpiperazin-1-yl)azetidin-1-yl]carbonyl}-1H-indole], the Emax at 10 µM under setting [1] worked out at 69.5%. Still for that read-out and setting: the same measure for `COc1ccc(-c2ccc(C(=O)N3CC(N4CCN(c5ncccn5)CC4)C3)cc2)cc1` [compound 5, 2-(4-{1-[(4′-Methoxybiphenyl-4-yl)carbonyl]azetidin-3-yl}piperazin-1-yl)pyrimidine]: 98.8%; for `O=C(/C=C/c1ccc(SC(F)(F)F)cc1)N1CC(N2CCN(c3ccccn3)CC2)C1` [compound 41, 1-Pyridin-2-yl-4-{1-[(2E)-3-(4-[(trifluoromethyl)sulfanyl]phenyl}prop-2-enoyl]azetidin-3-yl}piperazine]: 66.8%. As for `CCCc1cc2cc(C(=O)N3CC(N4CCN(c5ccccn5)CC4)C3)ccc2n1C` [Compound #213], the “Ex. 5 % MAFP @10 μM” value turned out to be 61.1 % MAFP. As for `O=C(c1ccc(C2CCCCC2)cc1)N1CC(N2CCN(c3ccccn3)CC2)C1` [compound 15, 1-{1-[(4-Cyclohexylphenyl)carbonyl]azetidin-3-yl}-4-pyridin-2-ylpiperazine], the Emax at 10 µM under setting [1] amounted to 47.6%. As to `O=C(c1cccc2c1Cc1ccccc1-2)N1CC(N2CCN(c3ccccn3)CC2)C1` [compound 96, 1-[1-(9H-Fluoren-1-ylcarbonyl)azetidin-3-yl]-4-pyridin-2-ylpiperazine], the Emax at 10 µM under setting [1] worked out at 0%. In the case of `O=C(c1ccc2nc(C3CCCCC3)oc2c1)N1CC(N2CCN(c3ccccn3)CC2)C1` [Compound #211], the “Ex. 5 % MAFP @ 1 μM” value was found to be 39.7 % MAFP and the “Ex. 5 % MAFP @10 μM” value was 100.8 % MAFP.

On to `O=C(c1ccc(Cc2ccccc2)cc1)N1CC(N2CCN(c3ncccn3)CC2)C1` [compound 24, 2-(4-{1-[(4-Benzylphenyl)carbonyl]azetidin-3-yl}piperazin-1-yl)pyrimidine], for which the Emax at 10 µM under setting [1] turned out to be 81.9%. The same measure, in the same setting: the same measure for `O=C(c1ccc(OCc2ccccc2)cc1)N1CC(N2CCN(c3ccccn3)CC2)C1` [compound 112, 1-(1-{[4-(Benzyloxy)phenyl]carbonyl}azetidin-3-yl)-4-pyridin-2-ylpiperazine]: 79.2%. Consider `CN(CC1CCCCC1)c1ccc(CCC(=O)N2CC(N3CCN(c4ccccn4)CC3)C2)cc1` [compound 40, N-(Cyclohexylmethyl)-N-methyl-4-{3-oxo-3-[3-(4-pyridin-2-ylpiperazin-1-yl)azetidin-1-yl]propyl}aniline], for which the Emax at 10 µM under setting [1] stood at 90.4% and the Emax at 10 µM under setting [2] is 77.3%. As to `O=C(c1ccc(-c2ccc(Cl)c(Cl)c2)cc1)N1CC(N2CCN(c3ncccn3)CC2)C1` [compound 11, 2-(4-{1-[(3′,4′-Dichlorobiphenyl-4-yl)carbonyl]azetidin-3-yl}piperazin-1-yl)pyrimidine], the Emax at 10 µM under setting [1] was found to be 55.2%. Same read-out and setting: the same measure for `O=C(c1ccc(-c2cccc(C(F)(F)F)c2)cc1)N1CC(N2CCN(c3ncccn3)CC2)C1` [compound 4, 2-[4-(1-{[3′-(Trifluoromethyl)biphenyl-4-yl]carbonyl}azetidin-3-yl)piperazin-1-yl]pyrimidine]: 112%.

Regarding `CC(C)Cc1cc2cc(C(=O)N3CC(N4CCN(c5ccccn5)CC4)C3)ccc2n1CC(C)C` [Compound #212], the “Ex. 5 % MAFP @10 μM” value is listed as 72.9 % MAFP. As to `O=C(c1ccc(OCc2ccccc2)cc1)N1CC(N2CCN(c3ncccn3)CC2)C1` [compound 111, 2-[4-(1-{[4-(Benzyloxy)phenyl]carbonyl}azetidin-3-yl)piperazin-1-yl]pyrimidine], the Emax at 10 µM under setting [1] came to 106%. Same read-out and setting: the same measure for `O=C(Cc1ccc(-c2ccccc2)cc1)N1CC(N2CCN(c3ccccn3)CC2)C1` [compound 88, 1-[1-(Biphenyl-4-ylacetyl)azetidin-3-yl]-4-pyridin-2-ylpiperazine]: 2.8%.

For `CC(C)(C)c1nc2ccc(C(=O)N3CC(N4CCN(c5ccccn5)CC4)C3)cc2o1` [Compound #209], the “Ex. 5 % MAFP @ 1 μM” value is recorded as 19.9 % MAFP and the “Ex. 5 % MAFP @10 μM” value came to 47.3 % MAFP. Regarding `Cc1c(C(=O)N2CC(N3CCN(c4ccccn4)CC3)C2)nn(-c2ccc(Cl)cc2Cl)c1-c1ccc(Cl)cc1` [compound 39, 1-(1-{[5-(4-Chlorophenyl)-1-(2,4-dichlorophenyl)-4-methyl-1H-pyrazol-3-yl]carbonyl}azetidin-3-yl)-4-pyridin-2-ylpiperazine], under “HeLa, read-out: Ex. 5 % MAFP @10 μM”, the Emax at 10 µM worked out at 87.6%. Take `O=C(c1ccc(-n2cccc2)cc1)N1CC(N2CCN(c3ncccn3)CC2)C1` [compound 25, 2-[4-(1-{[4-(1H-Pyrrol-1-yl)phenyl]carbonyl}azetidin-3-yl)piperazin-1-yl]pyrimidine]: the Emax at 10 µM under setting [1] was found to be 87.7%. The same measure, in the same setting: the same measure for `O=C(c1ccc(N2CCCC2)cc1)N1CC(N2CCN(c3ncccn3)CC2)C1` [Compound #2, 2-(4-{1-[(4-Pyrrolidin-1-ylphenyl)carbonyl]azetidin-3-yl}piperazin-1-yl)pyrimidine]: 105%; for `N#Cc1cccnc1N1CCN(C2CN(C(=O)c3ccc(C4CCCCC4)cc3)C2)CC1` [Compound #21, 2-(4-{1-[(4-Cyclohexylphenyl)carbonyl]azetidin-3-yl}piperazin-1-yl)pyridine-3-carbonitrile]: 79.5%. The same measure, in the same setting: the same measure for `CC(C)(C)OC(=O)N1CCC(c2ccc(C(=O)N3CC(N4CCN(c5ccccn5)CC4)C3)cc2)CC1` [compound 122, tert-Butyl 4-(4-{[3-(4-pyridin-2-ylpiperazin-1-yl)azetidin-1-yl]carbonyl}phenyl)piperidine-1-carboxylate]: 67.8%; for `CC(C)n1c(C(F)(F)F)nc2cc(C(=O)N3CC(N4CCN(c5ncccn5)CC4)C3)ccc21` [compound 16, 1-(1-Methylethyl)-5-{[3-(4-pyrimidin-2-ylpiperazin-1-yl)azetidin-1-yl]carbonyl}-2-(trifluoromethyl)-1H-benzimidazole]: 91.5%.

These data come from patent US20130184251A1, “HETEROAROMATIC AND AROMATIC PIPERAZINYL AZETIDINYL AMIDES AS MONOACYLGLYCEROL LIPASE INHIBITORS” (Janssen Pharmaceutica, NV, priority 2009, published 2013).
